What was measured:
Plasmodium falciparum [1] = test: Hit confirmation in dose-response curve in NF54 nanoGlo assay, at 72h; assay type: functional, organism-based, Erythrocyte; design: timepoint 72 hour; settings: Plasmodium falciparum, NF54, Erythrocyte, 72 h
Plasmodium falciparum [2] = test: Hit confirmation in dose-response curve in NF54 nanoGlo assay, at 12h; assay type: functional, organism-based, Erythrocyte; design: timepoint 12 hour; settings: Plasmodium falciparum, NF54, Erythrocyte, 12 h
Plasmodium falciparum [3] = test: Hit confirmation in dose-response curve in NF54 pLDH assay, at 72h; assay type: functional, organism-based, Erythrocyte; design: timepoint 72 hour; settings: Plasmodium falciparum, NF54, Erythrocyte, 72 h
[4] = Hit confirmation in dose-response curve in HepG2 cytotoxicity assay, at 72h; assay type: toxicity, cell-based, Homo sapiens; design: timepoint 72 hour; settings: human, HepG2 cells
Plasmodium falciparum [5] = test: Hit confirmation in dose-response curve in Dd2 pLDH assay, at 72h; assay type: functional, organism-based, Erythrocyte; design: timepoint 72 hour; settings: Plasmodium falciparum, Dd2, Erythrocyte, 72 h

Compound | IC50 (Plasmodium falciparum [1]) [µM] | IC50 (Plasmodium falciparum [2]) [µM] | IC50 (Plasmodium falciparum [3]) [µM] | IC50 (Plasmodium falciparum [5]) [µM] | IC50 at 72 h [4] [µM]
NC(=O)[C@]1(O)CCN(c2ccnc3ccc(Oc4ccccc4)cc23)C1 | 3.31 | 7.76 | 3.8 | 3.24 | > 10
Cn1cncc1[C@@H]1CNC[C@H]1CNC(=O)c1ccccc1NC1CCCCC1 | 3.89 | 8.13 | 6.76 | 4.17 | > 10
Nc1ccc(Nc2ccc(F)cc2)c2ccncc12 | 4.37 | 7.41 | 7.41 | 4.37 | > 10
COc1ccnc(NCCCc2nc(-c3ccncc3)cs2)n1 | 4.79 | > 10 | 5.89 | 4.68 | > 10
COc1ccc(CCNCc2ccc3[nH]cnc3c2)c(Cl)c1 | 3.02 | > 10 | 4.47 | 3.47 | > 10
COc1ccc(-c2cc(-c3ccccc3O)n([C@@H]3C(=O)Nc4ccc(Br)cc43)n2)cc1 | 4.07 | 4.9 | 8.71 | 8.71 | > 10
CCc1cc(Nc2ccc(N3CCOCC3)nc2)nc(-c2ccncc2)n1 | 3.72 | > 10 | 4.47 | 6.31 | > 10
CCOc1cccc(N2CCN(C(=O)c3cc(-c4ccc(F)cc4)[nH]n3)CC2)n1 | 5.01 | 2.95 | > 10 | > 10 | > 10
CC(C)c1ccc(-c2noc(CCN3CCN(CCCN(C)C)CC3)n2)cc1 | 7.94 | > 10 | > 10 | 8.51 | > 10
CCN1CCC(N2CCC(C(=O)NCCc3ccc(OC(F)(F)F)cc3)CC2)CC1 | 3.31 | 6.76 | 3.8 | 3.31 | > 10

More lines, main results first:

IC50 (Plasmodium falciparum [1]) [µM] | IC50 (Plasmodium falciparum [2]) [µM] | IC50 (Plasmodium falciparum [3]) [µM] | IC50 (Plasmodium falciparum [5]) [µM] | Compound | IC50 at 72 h [4] [µM]
2.63 | 6.61 | 2.57 | 2.63 | O=C(NCc1ccc(N2CCNCC2)c(F)c1)c1ccc(-c2noc(C(F)(F)F)n2)cc1 | > 10
3.24 | > 10 | 5.75 | 5.37 | O=C(NCCNc1ccnc2ccncc12)c1ccc(C(F)(F)F)cc1 | > 10
2.34 | 5.01 | 8.51 | 3.39 | O[C@@H](CNCc1cc2cc(Cl)c(Cl)cc2[nH]1)c1ccc(F)cc1 | > 10
2.69 | > 10 | 8.71 | > 10 | COc1ccc2[nH]cc(C3=CCN(c4ccc5nnc(-c6ccccc6F)n5n4)CC3)c2c1 | > 10
3.24 | 1.41 | > 10 | > 10 | Cn1cc(-c2cncc(C(=O)NC3CCN(c4cccc(F)c4)CC3)c2)cn1 | > 10
0.55 | 1.1 | 0.437 | 0.437 | CN(CCCn1ccnc1)c1ccnc2cc(Br)ccc12 | > 10
1.32 | 2 | 1.15 | 1.12 | CCN1CCN([C@H]2CCN(c3ccnc4ccncc34)C2)CC1 | > 10
2.63 | 4.79 | 3.47 | 2.69 | CN(C)Cc1cccc(CCNCc2csc(-c3ccc(C(F)(F)F)cc3)n2)c1 | 7.76
2.51 | > 10 | 9.12 | 6.46 | Cc1nc(-c2ccccn2)nc(NC2CCN(CC(F)F)CC2)c1C | > 10
2.51 | 5.37 | 2.95 | 2.82 | CN1CCC(N(Cc2ccccc2)C(=O)c2cc3cnccc3[nH]2)CC1 | > 10
0.575 | 0.933 | 0.562 | 0.525 | CCOc1cc2nccc(N3C[C@H]4CN(C)C[C@H]4C3)c2cc1OCC | > 10

Reference: ChEMBL document CHEMBL5308541, “MAIP: An Open-Source Tool to Enrich High-Throughput Screening Output and Identify Novel, Druglike Molecules with Antimalarial Activity” (ACS Med Chem Lett, 2023)
